Structure (SMILES) | melting point [°C]
CC(=O)N1CCC2(CC1)Cc1ccccc1O2 | 94 to 97
CON=C(C(=O)OC)c1cccc(OCc2ccccc2)c1 | 62 to 63
Brc1ccc2[nH]c3cnc(-c4ccon4)cc3c2c1 | 292 to 293
CCC1(C)CC(=NO)C(C)C(C)(CC)N1OC(C)c1ccccc1 (configuration not stated) | 130 to 145
O=c1[nH]nc(-c2ccc(-n3ccnc3)cc2)c2cccnc12 | 359 to 361
CCN(CC)c1ccc(S(=O)(=O)N2CCCCC2=O)cc1 | 118 to 120
CC(C)(C)OC(=O)N1CCN(O)CC1 | 95 to 97
CC#CCOc1ccc(S(=O)(=O)N(C)C(C(=O)NO)C(C)(C)SCCn2ccnc2)cc1 (configuration not stated) | 97 to 100
C[C@]1(CN2CCN(C3CCN(C(=O)OCc4ccc(OC(F)(F)F)cc4)CC3)CC2)Cn2cc([N+](=O)[O-])nc2O1 | 105 to 106
CS(=O)(=O)c1ccc(S(C)(=O)=O)nc1 | 205 to 207
O=C(CBr)c1ccc(OCc2ccccc2)c([N+](=O)[O-])c1 | 136
CCOc1ccc2cccnc2c1[N+](=O)[O-] | 161 to 164
CCNC(=O)c1sc(C)cc1[Si](C)(C)C | 112 to 115
CC#CCOc1ccc(SC(C(=O)NO)c2ccc(Br)cc2)cc1 (configuration not stated) | 153
O=c1[nH]c(=O)n(CCCCN2CC=C(c3ccc(Cl)cc3)CC2)c2ccccc12 | 162 to 166
O[C@@H]1CCN(Cc2nc(-c3ccc4c(c3)Nc3ccccc3S4)cs2)C1 | 178 to 180
CC(C)(C)c1cc(C(C)(CC(=O)NN)c2cc(C(C)(C)C)c(O)c(C(C)(C)C)c2)cc(C(C)(C)C)c1O | 172
O=C(NC1CCCCC1)N(Cc1ccc(Cl)cc1)C1CCCC1 | 99 to 101
COC(=O)c1cc2c(N3CCNCC3)cccc2[nH]1 | 177 to 180
CNC(=S)Nc1ccc(C2=NNC(=O)CC2C)cc1 (configuration not stated) | 213
O=S(=O)(NCC1CCC(NCC2CCc3ccccc3C2)CC1)c1ccc2ccccc2c1 (configuration not stated) | 114 to 115
O=C1CC(c2cccnc2)=NN1c1ccccc1 | 102 to 103
CC(=O)c1ccc(N2CCN(c3ccncc3)CC2)cc1 | 176 to 177
N#CC1OC(COC(=O)c2ccccc2)C(OC(=O)c2ccccc2)C1OC(=O)c1ccccc1 (configuration not stated) | 77 to 78

Structure (SMILES) | melting point [°C]
ON=C(c1ccccc1OCc1ccc(Cl)cc1)n1ccnc1 | 196 to 197
CN(C)CCOc1cc2c(Nc3cccc(Br)c3)c(C#N)cnc2cn1 | 138 to 139
CSc1ccc2cccc(CCNC(=O)C3CC3)c2c1 | 96 to 98
O=[N+]([O-])c1cccc(-c2nc3ccc(OC(F)(F)F)cc3[nH]2)c1 | 193 to 195
O=C(O)Cc1cn(Cc2ccc(OCc3ccccc3)cc2)nc1-c1ccc(F)cc1 | 194 to 195
CC(C)(C)c1ccc(CNC(=S)NC(C)(C)c2ccc(NS(C)(=O)=O)cc2)cc1 | 161 to 164
c1cncc(C2=NOC(C3CC3)(N3CCCC3)C2)c1 (configuration not stated) | 90 to 92
Cn1c(=S)c(-c2cccs2)nc2ccccc21 | 113
C=CCc1c(O)ccc2ccc(=O)[nH]c12 | 207 to 209
COCCOc1cc(N(C)S(=O)(=O)c2ccccn2)c2[nH]c(C3=NCC(CC(=O)O)S3)cc2c1 (configuration not stated) | 107 to 109
CC(=O)O[C@H]1CC[C@H](c2ccc(I)cc2)CC1 | 84.4 to 85.4
Nc1ccc(CCNS(=O)(=O)c2cccc3[nH]nnc23)cc1 | 178 to 179
CC(Cl)(Cl)C(NC(=O)c1ccc(Cl)cc1)NC(=NC#N)Nc1ccc(C(F)(F)F)nc1 (configuration not stated) | 204 to 205
Cc1nc2nc(C(F)(F)F)cc(-c3cccnc3)n2n1 | 195 to 197
Nc1nc(N)c2c(ccc3c2cc(Cl)n3Cc2ccccc2)n1 | 285 to 286
CCOC(=O)C(NC(C)=O)(C(=O)OCC)c1ccc([N+](=O)[O-])cn1 | 82 to 83
O=C1SC(Cc2ccc(OCCc3c[nH]c4ccccc34)cc2)C(=O)N1C(c1ccccc1)(c1ccccc1)c1ccccc1 (configuration not stated) | 81 to 82.5
C=CCOc1ccc(C(=O)OC2CCC(CCCCCCC(=O)C(=C)C)CC2)cc1 (configuration not stated) | 50
CS(=O)(=O)c1ccc(Oc2ccc(Cl)cc2)cc1 | 109 to 111
Cc1nnc2n1-c1sccc1C(c1ccccc1)=NC2 | 224 to 226
CCCCCc1nc(NC(=N)N)sc1-c1cccc([N+](=O)[O-])c1 | 135 to 137
COC(=O)[C@@H](Cc1ccccc1)NC(=O)OCc1cc2cc(-c3ccccc3)ccc2[nH]1 | 142 to 143
On1cc(-c2ccccc2)[nH]c1=S | 196
CNc1cccc(-c2ccnc3c(C(=O)c4cccs4)cnn23)c1 | 188 to 190

Other lines, results leading:

melting point [°C] | Structure (SMILES)
110 to 111 | CC(C)c1ccc2c(-c3cc(C(C)(C)C)c(O)c(C(C)(C)C)c3)nn(CCO)c2n1
142 to 143 | Cc1nc(N2CCN(Cc3ccc(C(F)F)o3)C2=O)sc1C(=O)NCc1cccnc1
120 to 122 | COC(=O)c1cc(OC)c(Br)c(OC)c1
211 | CCc1ccccc1NC=C1C(=O)N(c2cccc(C#N)c2)N=C1C
166 | COc1cc(C=CC(=O)c2ccc([N+](=O)[O-])cc2)cc(OC)c1
216 to 217 | NS(=O)(=O)c1cc(C(=O)NN(c2ccccc2)C2CCCCC2)ccc1Cl
344 to 347 | O=C1c2cccc3c4c(cc(c23)C(=O)N1O)OCCO4
88 | COc1ccc(C(F)(F)F)cc1C(=O)c1ccc(C#N)cc1
58 to 59 | CC(C)(C)OC(=O)c1ccccc1CCc1ccccc1N
147 to 149 | COc1cccc(S(=O)(=O)N2c3cc(F)ccc3-c3ccc(F)cc3C2C)c1 (configuration not stated)
115 | CCOC(=O)C(C(=O)N(C)C)=C(OCc1ccccc1)c1ccc(Cl)cc1Cl
266 to 268 | Cn1cc(C(N)=O)c(=O)c2sc(-c3ccccc3)cc21
134 to 135 | Nc1c(-c2ccc(OC(F)(F)F)cc2)nnn1-c1ccc(C(F)(F)F)cc1F
204 to 210 | Cc1cccc(Cl)c1C(=O)N[C@@H](Cc1ccc(-c2cccn(C)c2=O)cc1)C(=O)O
138 | CC(CN1CCCC1)N1c2ccccc2Sc2ccc(C(=O)NCc3c(Cl)cccc3Cl)cc21 (racemic)
218 to 220 | CSc1ccc(C(=O)NCc2ccc3c(c2)C(=O)N(C2(C)CCC(=O)NC2=O)C3=O)cc1 (configuration not stated)
169 to 170 | CCOC(=O)C1=C(C)NC(C)=C(C(=O)OCC2CC2)C1c1cccc([N+](=O)[O-])c1 (configuration not stated)
245 | CC1SC(=O)NN=C1c1ccc2c(c1)CC(C)(C)C(=O)N2 (configuration not stated)
225 to 227 | CN(C)CCNc1ccc2c3c(nn2CCNC(=O)OC(C)(C)C)-c2cnccc2C(=O)c13
95 to 98 | COC(=O)CC(C)C(=O)c1ccc2c(c1)OCC(=O)N2 (configuration not stated)
225 to 226 | CC(O)CNc1c(F)cc2c(=O)c(C(=O)O)cn(-c3cc(N)c(F)cc3F)c2c1Cl (configuration not stated)
265 to 266 | COc1c(C2CC2c2ccc(NS(C)(=O)=O)cc2)cc(N2CCC(=O)NC2=O)cc1C(C)(C)C (configuration not stated)
190 to 192 | CC(=O)c1cccc(-c2cnn3c(-c4cccc(NC(=O)CC(C)C)c4)ccnc23)c1
173 to 175 | CN(C)c1c([N+](=O)[O-])cc(-c2nc(Cl)c(CC#N)n2Cc2ccccc2)cc1[N+](=O)[O-]
157 to 160 | CC(C)(C)OC(=O)N1CCC(C)(c2nc(-c3ccncc3)c(-c3ccc(F)cc3)[nH]2)CC1

melting point [°C] | Structure (SMILES)
103 to 105 | O=C1NCCN1Cc1cccc(F)c1
127 to 129 | O=C1C(=O)N(CCCCN2CCN(C(c3ccccc3)c3ccccc3)CC2)c2ccccc21
192 | CCOC(=O)c1cn(-c2nsnc2C)c2nc(Cl)c(F)cc2c1=O
218 to 220 | CCCCc1c(C(=O)O)cc(Cl)cc1[N+](=O)[O-]
157 to 160 | CCCCc1nc(C(O)C(C)(C)C)c(C(N)=O)n1Cc1ccc(-c2ccccc2-c2nnn[nH]2)cc1 (configuration not stated)
90 to 95 | COC(=O)CCCCCCCNC(=O)C(COS(C)(=O)=O)NS(=O)(=O)c1ccc(Cl)cc1 (racemic)
123 to 125 | CCCn1c2ccccc2c2c3c(nc(C)c21)CC(C)(C)CC3=O
167 to 169 | C[C@@H]1OCCN(c2cc(N3CCOCC3)nc(-n3c(C(F)F)nc4ccccc43)n2)[C@@H]1C (relative stereo)
130 to 131 | COC[C@H]1CCCN1C(=O)c1cc(-c2ccccc2)c(=O)n2c1-c1ccccc1C2
131 to 135 | COc1ccc2c(c1)CCC(C(=O)O)O2 (configuration not stated)
72.9 to 74 | CC(=O)N1CCC(C(=O)N(CCCN2CC3CN(C(=O)c4cccnc4N4CCC4)CC3C2)c2ccc(C)c(Cl)c2)CC1 (configuration not stated)
110 to 111 | COC(=O)[C@@H](CCCc1ccc(OCc2nc(-c3ccco3)oc2C)c(OC)c1)OC(N)=O
159 to 160 | Cc1c(C)n(CC2CC2)c2c(CCc3ccc(F)cc3F)nncc12
170 to 173 | CC(C)OC(=O)c1cc(-n2c(=O)c3c(n(C)c2=O)OCC3)c(F)cc1Cl
113 to 116 | CNc1c(C)c(C)c(OC(C)=O)c(C)c1N
181 to 183 | CN1CCN(C2=Nc3ccccc3N3CCCc4cc(Br)cc2c43)CC1
357 to 358 | O=c1[nH]c2cc(Cl)ccc2c(O)c1-c1ccccc1Br
163 | COc1nc(NC(=O)NS(=O)(=O)c2c(C)cccc2OC)nc(OC)n1
206 to 207 | O=C(Nc1cccnc1)N1CCN(c2nccc(-c3ccc(F)cc3F)n2)CC1
144 to 146 | CCCCCCCCCCOc1ccc2c(c1CCC)OC(CCC(=O)O)(CCC(=O)O)CC2=O
> 275 | N#Cc1ccc(N2CCc3[nH]c4c(cnc5cc(Cl)ccc54)c3C2)cc1
195 | COc1cccc(-c2nc(N)ncc2-c2ccc(=O)n(C)n2)c1
222 to 223 | O=C(C=Cc1ccc(CNC2CC2)cc1)Nc1ccc(-c2ccc(Cl)cc2)cc1
163 to 166 | COc1cc(N2CCN(C[C@H](C)O)CC2)ccc1Nc1ncc2ccc(-c3cc(Cl)ccc3OC)n2n1

From a melting point compilation (Tetko et al.; mined from patent text by program, amines drawn as free bases though some values may be those of a salt)
